Patent US9828379B2 (priority 2013, dated 2017)

Legend:
Test in all cases: In vitro competitive activity-based protein profiling (Table 2, % inhibition at 1 μM)
Type in all cases: biochemical
FAAH = target: T1, FAAH (Mus musculus, UniProt O08914); details: read-out: % Inhibition at 1 μM FAAH
T1 sequence (O08914 1-579): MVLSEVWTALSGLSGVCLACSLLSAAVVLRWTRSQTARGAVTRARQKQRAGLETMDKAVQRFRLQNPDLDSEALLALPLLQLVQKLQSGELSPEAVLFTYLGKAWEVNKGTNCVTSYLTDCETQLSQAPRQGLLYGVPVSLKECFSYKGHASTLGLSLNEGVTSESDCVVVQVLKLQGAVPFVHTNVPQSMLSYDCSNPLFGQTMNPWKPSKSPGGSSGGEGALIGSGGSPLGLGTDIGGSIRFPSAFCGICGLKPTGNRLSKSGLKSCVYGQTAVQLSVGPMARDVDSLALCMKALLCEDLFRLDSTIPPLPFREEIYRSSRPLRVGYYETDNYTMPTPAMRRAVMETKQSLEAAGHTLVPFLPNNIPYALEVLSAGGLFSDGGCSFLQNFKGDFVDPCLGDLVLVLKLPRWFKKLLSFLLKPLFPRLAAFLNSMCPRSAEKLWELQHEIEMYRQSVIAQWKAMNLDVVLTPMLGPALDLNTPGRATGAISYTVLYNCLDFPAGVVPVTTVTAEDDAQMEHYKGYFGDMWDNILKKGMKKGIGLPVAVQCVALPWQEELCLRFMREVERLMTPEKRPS
Procedure: (§1) After 30 min, FP—Rh (1.0 μL, 50 μM in DMSO) was added and the mixture was incubated for another 30 min at 37° C. Reactions were quenched with SDS loading buffer (50 μL-4×) and run on SDS-PAGE. Following gel imaging, serine hydrolase activity was determined by measuring fluorescent intensity of gel bands corresponding to MAGL, ABHD6 and FAAH using ImageJ 1.43 u software.
(§2) hMAGL was expressed in HEK293T cells according to previously reported methods (see Niphakis, Long, and Blankman, J. L., et al. (2007) Chem. Biol. 14:1347-1356). Cell lysates were diluted with mock proteomes for use in competitive ABPP experiments.

ABHD6 = target: T2, ABHD6 (Mus musculus, UniProt Q8R2Y0); details: read-out: % Inhibition at 1 μM ABHD6
T2 sequence (Q8R2Y0 1-336): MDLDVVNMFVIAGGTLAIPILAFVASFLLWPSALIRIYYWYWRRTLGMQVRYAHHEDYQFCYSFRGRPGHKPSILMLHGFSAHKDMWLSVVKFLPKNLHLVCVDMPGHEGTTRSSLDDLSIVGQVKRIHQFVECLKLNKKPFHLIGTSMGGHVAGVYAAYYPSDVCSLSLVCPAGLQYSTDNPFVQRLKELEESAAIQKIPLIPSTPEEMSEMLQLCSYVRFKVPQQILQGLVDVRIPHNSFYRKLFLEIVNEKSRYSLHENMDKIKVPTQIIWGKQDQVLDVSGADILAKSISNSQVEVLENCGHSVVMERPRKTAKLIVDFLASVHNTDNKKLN
Procedure: as §1, §2

MAGL = target: T3, MAGL (Mus musculus, UniProt O35678); details: read-out: % Inhibition at 1 μM MAGL
T3 sequence (O35678 1-303): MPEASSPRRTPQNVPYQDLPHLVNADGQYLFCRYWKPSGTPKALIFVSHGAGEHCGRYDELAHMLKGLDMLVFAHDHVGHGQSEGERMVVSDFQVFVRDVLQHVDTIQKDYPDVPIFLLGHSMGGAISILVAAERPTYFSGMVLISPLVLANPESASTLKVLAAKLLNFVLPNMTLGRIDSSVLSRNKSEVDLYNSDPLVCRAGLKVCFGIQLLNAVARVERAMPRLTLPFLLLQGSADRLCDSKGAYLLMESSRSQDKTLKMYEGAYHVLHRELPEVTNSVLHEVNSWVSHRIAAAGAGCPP
Procedure: After 30 min, FP—Rh (1.0 μL, 50 μM in DMSO) was added and the mixture was incubated for another 30 min at 37° C. Reactions were quenched with SDS loading buffer (50 μL-4×) and run on SDS-PAGE.
Cell lysates were diluted with mock proteomes for use in competitive ABPP experiments.

## O=C(ON1C(=O)CCC1=O)N1CC2CN(Cc3ccc(C(=O)N4CCCCC4)cc3Cl)CC2C1 (stereo not drawn) [Example 161, 2,5-dioxopyrrolidin-1-yl 5-([2-chloro-4-[(piperidin-1-yl)carbonyl]phenyl]methyl)-octahydropyrrolo[3,4-c]pyrrole-2-carboxylate]
FAAH
  inhibition at 1 µM: 25 to 75%
ABHD6
  inhibition at 1 µM: 25 to 75%
MAGL
  inhibition at 1 µM: 25 to 75%

## Cc1cccc(CN2CC3CN(C(=O)ON4C(=O)CCC4=O)CC3C2)c1N1CCCCC1 (stereo not drawn) [Example 105, 2,5-Dioxopyrrolidin-1-yl 5-[[3-methyl-2-(piperidin-1-yl)phenyl]methyl]-octahydropyrrolo[3,4-c]pyrrole-2-carboxylate]
FAAH
  inhibition at 1 µM: < 25%
ABHD6
  inhibition at 1 µM: < 25%
MAGL
  inhibition at 1 µM: 25 to 75%

## CC(C)c1cc(CN2CC3CN(C(=O)ON4C(=O)CCC4=O)CC3C2)n(C2CCCCC2)n1 (stereo not drawn) [Example 123, 2,5-Dioxopyrrolidin-1-yl 5-[[1-cyclohexyl-3-(propan-2-yl)-1H-pyrazol-5-yl]methyl]-octahydropyrrolo[3,4-c]pyrrole-2-carboxylate]
FAAH
  inhibition at 1 µM: < 25%
ABHD6
  inhibition at 1 µM: > 75%
MAGL
  inhibition at 1 µM: 25 to 75%

## Cn1nc(-c2ccccc2)cc1CN1CC2CN(C(=O)ON3C(=O)CCC3=O)CC2C1 (stereo not drawn) [Example 197, 2,5-dioxopyrrolidin-1-yl 5-((1-methyl-3-phenyl-1H-pyrazol-5-yl)methyl)hexahydropyrrolo[3,4-c]pyrrole-2(1H)-carboxylate]
FAAH
  inhibition at 1 µM: < 25%
ABHD6
  inhibition at 1 µM: < 25%
MAGL
  inhibition at 1 µM: < 25%

## Cc1c(CN2CC3CN(C(=O)ON4C(=O)CCC4=O)CC3C2)cccc1N1CCN(C)CC1 (stereo not drawn) [Example 145]
FAAH
  inhibition at 1 µM: < 25%
ABHD6
  inhibition at 1 µM: < 25%
MAGL
  inhibition at 1 µM: < 25%

## CC(=O)N1CCN(c2ccc(CN3CC4CN(C(=O)ON5C(=O)CCC5=O)CC4C3)c(Cl)c2)CC1 (stereo not drawn) [Example 103, 2,5-Dioxopyrrolidin-1-yl 5-[[4-(4-acetylpiperazin-1-yl)-2-chlorophenyl]methyl]-octahydropyrrolo[3,4-c]pyrrole-2-carboxylate]
FAAH
  inhibition at 1 µM: < 25%
ABHD6
  inhibition at 1 µM: < 25%
MAGL
  inhibition at 1 µM: < 25%

## CC(=O)N1CCC(c2nn(C(C)C)cc2CN2CC3CN(C(=O)ON4C(=O)CCC4=O)CC3C2)CC1 (stereo not drawn) [Example 119, 2,5-Dioxopyrrolidin-1-yl 5-[[3-(1-acetylpiperidin-4-yl)-1-(propan-2-yl)-1H-pyrazol-4-yl]methyl]-octahydropyrrolo[3,4-c]pyrrole-2-carboxylate]
FAAH
  inhibition at 1 µM: < 25%
ABHD6
  inhibition at 1 µM: < 25%
MAGL
  inhibition at 1 µM: < 25%

## O=C(ON1C(=O)CCC1=O)N1CC2CN(Cc3ccc(Cl)cc3N3CCC4(CCNC4=O)CC3)CC2C1 (stereo not drawn) [Example 112, 2,5-Dioxopyrrolidin-1-yl 5-[(4-chloro-2-[1-oxo-2,8-diazaspiro[4.5]decan-8-yl]phenyl)methyl]-octahydropyrrolo[3,4-c]pyrrole-2-carboxylate]
FAAH
  inhibition at 1 µM: < 25%
ABHD6
  inhibition at 1 µM: < 25%
MAGL
  inhibition at 1 µM: 25 to 75%

## CC(=O)N1CCC(c2nn(C)cc2CN2CC3CN(C(=O)ON4C(=O)CCC4=O)CC3C2)CC1 (stereo not drawn) [Example 116, 2,5-Dioxopyrrolidin-1-yl 5-[[3-(1-acetylpiperidin-4-yl)-1-methyl-1H-pyrazol-4-yl]methyl]-octahydropyrrolo[3,4-c]pyrrole-2-carboxylate]
FAAH
  inhibition at 1 µM: < 25%
ABHD6
  inhibition at 1 µM: < 25%
MAGL
  inhibition at 1 µM: < 25%

## O=C(ON1C(=O)CCC1=O)N1CC2CN(Cc3ccc(Cl)cc3N3CCC3)CC2C1 (stereo not drawn) [Example 113, 2,5-Dioxopyrrolidin-1-yl 5-[[2-(azetidin-1-yl)-4-chlorophenyl]methyl]-octahydropyrrolo[3,4-c]pyrrole-2-carboxylate]
FAAH
  inhibition at 1 µM: < 25%
ABHD6
  inhibition at 1 µM: 25 to 75%
MAGL
  inhibition at 1 µM: > 75%

## O=C(ON1C(=O)CCC1=O)N1CC2CN(Cc3ccc(F)cc3N3CCCC3)CC2C1 (stereo not drawn) [Example 90, 2,5-Dioxopyrrolidin-1-yl 5-[[4-fluoro-2-(pyrrolidin-1-yl)phenyl]methyl]-octahydropyrrolo[3,4-c]pyrrole-2-carboxylate]
FAAH
  inhibition at 1 µM: 25 to 75%
ABHD6
  inhibition at 1 µM: < 25%
MAGL
  inhibition at 1 µM: 25 to 75%

## CC(C)c1ccc(CN2CC3CN(C(=O)ON4C(=O)CCC4=O)CC3C2)c(N2CCCC2)c1 (stereo not drawn) [Example 98, 2,5-Dioxopyrrolidin-1-yl 5-[[4-(propan-2-yl)-2-(pyrrolidin-1-yl)phenyl]methyl]-octahydropyrrolo[3,4-c]pyrrole-2-carboxylate]
FAAH
  inhibition at 1 µM: < 25%
ABHD6
  inhibition at 1 µM: < 25%
MAGL
  inhibition at 1 µM: 25 to 75%

## Cc1c(CN2CC3CN(C(=O)ON4C(=O)CCC4=O)CC3C2)cccc1N1CCN(S(C)(=O)=O)CC1 (stereo not drawn) [Example 141, 2,5-dioxopyrrolidin-1-yl 5-[[3-(4-methanesulfonylpiperazin-1-yl)-2-methylphenyl]methyl]-octahydropyrrolo[3,4-c]pyrrole-2-carboxylate]
FAAH
  inhibition at 1 µM: < 25%
ABHD6
  inhibition at 1 µM: < 25%
MAGL
  inhibition at 1 µM: 25 to 75%

## Cc1c(CN2CC3CN(C(=O)ON4C(=O)CCC4=O)CC3C2)cccc1N1CCC(NS(C)(=O)=O)CC1 (stereo not drawn) [Example 140, 2,5-dioxopyrrolidin-1-yl 5-[[3-(4-methanesulfonamidopiperidin-1-yl)-2-methylphenyl]methyl]-octahydropyrrolo[3,4-c]pyrrole-2-carboxylate]
FAAH
  inhibition at 1 µM: < 25%
ABHD6
  inhibition at 1 µM: < 25%
MAGL
  inhibition at 1 µM: 25 to 75%

## Cn1cc(CN2CC3CN(C(=O)ON4C(=O)CCC4=O)CC3C2)c(-c2ccccc2Cl)n1 (stereo not drawn) [Example 115, 2,5-Dioxopyrrolidin-1-yl 5-[[3-(2-chlorophenyl)-1-methyl-1H-pyrazol-4-yl]methyl]-octahydropyrrolo[3,4-c]pyrrole-2-carboxylate]
FAAH
  inhibition at 1 µM: < 25%
ABHD6
  inhibition at 1 µM: < 25%
MAGL
  inhibition at 1 µM: 25 to 75%

## CCn1cc(CN2CC3CN(C(=O)OC(C(F)(F)F)C(F)(F)F)CC3C2)c(C(=O)N2CCOCC2)n1 (stereo not drawn) [Example 76, 1,1,1,3,3,3-Hexafluoropropan-2-yl 5-((1-ethyl-3-(morpholine-4-carbonyl)-1H-pyrazol-4-yl)methyl)hexahydropyrrolo[3,4-c]pyrrole-2(1H)-carboxylate]
FAAH
  inhibition at 1 µM: < 25%
ABHD6
  inhibition at 1 µM: < 25%
MAGL
  inhibition at 1 µM: 25 to 75%

## CC1COCCN1c1cc(F)ccc1CN1CC2CN(C(=O)ON3C(=O)CCC3=O)CC2C1 (stereo not drawn) [Example 91, 2,5-Dioxopyrrolidin-1-yl 5-[[4-fluoro-2-(3-methylmorpholin-4-yl)phenyl]methyl]-octahydropyrrolo[3,4-c]pyrrole-2-carboxylate]
FAAH
  inhibition at 1 µM: < 25%
ABHD6
  inhibition at 1 µM: < 25%
MAGL
  inhibition at 1 µM: < 25%

## CCn1cc(CN2CC3CN(C(=O)OC(C(F)(F)F)C(F)(F)F)CC3C2)c(-c2ccccn2)n1 (stereo not drawn) [Example 70, 1,1,1,3,3,3-Hexafluoropropan-2-yl 5-[[1-ethyl-3-(pyridin-2-yl)-1H-pyrazol-4-yl]methyl]-octahydropyrrolo[3,4-c]pyrrole-2-carboxylate]
FAAH
  inhibition at 1 µM: < 25%
ABHD6
  inhibition at 1 µM: < 25%
MAGL
  inhibition at 1 µM: 25 to 75%

## CCN1CCN(c2cccc(CN3CC4CN(C(=O)ON5C(=O)CCC5=O)CC4C3)c2C)CC1 (stereo not drawn) [Example 146]
FAAH
  inhibition at 1 µM: < 25%
ABHD6
  inhibition at 1 µM: < 25%
MAGL
  inhibition at 1 µM: 25 to 75%
